What all share (assay): NCI anticancer screen, dose series, 48 h
Assay [1] concerns SK-MEL-2 melanoma.
The subject of assay [2] is T-47D breast.
In assay [3] the test system is SK-MEL-28 melanoma.
Assay [4] relates to KM12 colon.
Assay [5] deals with K-562 leukemia.
Assay [6] has as its system CAKI-1 renal.
The test system of assay [7] is OVCAR-8 ovarian.
In assay [8] the test system is OVCAR-5 ovarian.
In assay [9] the test system is NCI-H226 lung.
Assay [10] concerns HS 578T breast.

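96-well plates; 48 h exposure; 5 concentrations. Endpoints by linear interpolation between flanking doses. Not reached: highest tested concentration assigned. Here, GI50 denotes the concentration required for 50% inhibition of growth. TGI is the concentration that stops growth completely.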

As to `CN(C)Cc1c[nH]c2nc[nH]c(=O)c12`, the TGI in assay [1] is greater than 100 µM; in assay [2] it was greater than 100 µM; in assay [3], greater than 100 µM; in assay [4], greater than 100 µM; in [5], 44.4 µM; in [6], greater than 100 µM. In addition, the TGI in assay [7], in [8], in assay [9] and in [10] was greater than 100 µM each time.
Consider `O=C1C=CC(=O)N1c1ccc2ccccc2c1`, for which the GI50 in assay [1] was 17.9 µM; in assay [2] it was 3.73 µM; in assay [3], 16.8 µM; in assay [4], 24.1 µM; in [5] it was 3.45 µM; in assay [6] it was 4.65 µM. Moreover, the GI50 in assay [7] was 19.2 µM; in assay [8] it was 17.9 µM; in assay [9], 16.8 µM; in assay [10] it was 14.4 µM. The TGI in assay [1] is 35.3 µM; in assay [2], 14.7 µM; in assay [3] it was 34 µM; in [4] it was 71 µM; in [5], greater than 100 µM; in [6], 17.8 µM. In addition, the TGI in assay [7] turned out to be 42.3 µM; in [8] it was 34 µM; in [9] it was 33.3 µM; in assay [10], 53.4 µM.
Regarding `COc1cc(/C=C2\CC3C4CC=C5C[C@@H](N6CCCC6)CC[C@]5(C)C4CC[C@]3(C)[C@H]2OC(C)=O)ccc1OCCCn1ccnc1` (stereo partly drawn), the GI50 in [1] is 7.54 µM; in [2], 2.19 µM; in assay [3] it was 0.157 µM; in [4] it was 0.63 µM; in assay [5] it was 0.119 µM; in assay [6], 0.641 µM. The GI50 in [7] is 0.774 µM; in assay [8], 7.15 µM; in [9], 10.3 µM; in assay [10] it was 5.76 µM. For the same molecule, the TGI in assay [1] is greater than 50 µM; in assay [2], greater than 50 µM; in assay [3], greater than 50 µM; in [4], 4.02 µM; in [5], 0.36 µM; in assay [6] it was 2.63 µM. Also, the TGI in assay [7] stood at 2.79 µM; in assay [8], 15.3 µM; in assay [9], 21.9 µM; in assay [10], 16.4 µM.
`O=c1oc2cc(O)ccc2cc1-c1nc2ccccc2o1`: the TGI was greater than 100 µM in assay [1]; 31.2 µM in [2]; greater than 100 µM in assay [3]; 93 µM in assay [4]; greater than 100 µM in assay [5]; greater than 100 µM in [6]. In addition, the TGI in assay [7], in assay [8], in [9] and in [10] was greater than 100 µM throughout.
Turning to `C=CC(=O)N1CCN(c2nc(OC[C@@H]3CCCN3C)nc3c(F)c(-c4nc(N)cc(C)c4C(F)(F)F)c(Cl)cc23)[C@@H](C)C1`, the GI50 is 2.05 µM in assay [1]; 2.14 µM in assay [2]; 1.75 µM in [3]; 2.11 µM in assay [4]; 2.47 µM in assay [5]; 1.51 µM in assay [6]. The GI50 in assay [7] was 1.64 µM; in assay [8] it was 9.68 µM; in assay [9] it was 1.88 µM; in [10], 1.83 µM. The TGI is 4.34 µM in [1]; 7.17 µM in assay [2]; 3.21 µM in [3]; 4.56 µM in assay [4]; 8.92 µM in [5]; 2.95 µM in assay [6]. The TGI in assay [7] is 3.09 µM; in assay [8] it was 21.7 µM; in assay [9], 4.52 µM; in assay [10], 4.53 µM.
Turning to `O=C(Nc1cccc2[nH]c(C(F)(F)F)nc12)c1ccc(Br)cc1F`, the GI50 in assay [1] was 0.32 µM; in assay [2] it was 2.26 µM; in assay [3], 4.76 µM; in [4], 3.29 µM; in assay [5], 3.37 µM; in [6], 2.89 µM. Further, the GI50 in assay [7] was 3.14 µM; in [8] it was 5.19 µM; in assay [9], 2.97 µM; in assay [10] it was 3.54 µM. For the same molecule, the TGI in assay [1] was 2.12 µM; in assay [2], 7.49 µM; in [3], 16.4 µM; in [4], 12 µM; in assay [5] it was 39.2 µM; in assay [6], 15.7 µM. Moreover, the TGI came to 15.6 µM in assay [7], 23.5 µM in assay [8], 12.8 µM in [9] and 22.8 µM in assay [10].
For `CC(=O)OC1CCC2(C)C(=CCC3C2CCC2(C)C3CC3OC4(CCC(C)CN4)C(C)C32)C1` (stereo not drawn), the TGI in assay [1], in [2], in [3], in assay [4], in [5] and in assay [6] was greater than 100 µM each time. Moreover, the TGI in [7], in assay [8], in assay [9] and in [10] was greater than 100 µM in each case.
`COc1cccc2c1C(=O)c1c(O)c3c(c(O)c1C2=O)C[C@@](O)(C(=O)CO)C[C@@H]3OC1CC2C(OCN2CN2COC3C(C)OC(O[C@H]4C[C@](O)(C(=O)CO)Cc5c(O)c6c(c(O)c54)C(=O)c4c(OC)cccc4C6=O)CC32)C(C)O1` (stereo partly drawn): the GI50 in assay [1] was 0.0179 µM; in [2], 0.00185 µM; in [3], 0.016 µM; in [4] it was 0.0139 µM; in assay [5], 0.00402 µM; in assay [6], 0.000878 µM. Further, the GI50 in assay [7] is 0.0113 µM; in assay [8], 0.0304 µM; in assay [9] it was 0.00981 µM; in assay [10], 0.0394 µM. Also, the TGI in assay [1] is 0.0591 µM; in assay [2], 0.0174 µM; in assay [3], 0.0378 µM; in [4] it was 0.0609 µM; in assay [6] it was 0.00708 µM; in assay [7] it was greater than 1 µM. The figures for the TGI in assay [8], in [9] and in [10] were greater than 0.264 µM, 0.0584 µM and greater than 1 µM, respectively.
For `NC(=O)c1c(NC(=O)c2ccc(C(F)(F)F)cc2Cl)sc2c1CCC(=O)C2`, the GI50 in assay [1] is 1.87 µM; in [2], 0.238 µM; in assay [3], 0.531 µM; in [4] it was 0.382 µM; in assay [5], 0.126 µM; in assay [6], 0.244 µM. Also, the GI50 in assay [7] was 0.456 µM; in assay [8] it was 0.468 µM; in assay [9] it was 1.34 µM; in assay [10] it was 0.368 µM. The TGI in [1] is 5.37 µM; in assay [2] it was 4.73 µM; in [3], 2.04 µM; in [4] it was 1.73 µM; in assay [6], 0.881 µM; in assay [7] it was 12.2 µM. Moreover, the values for the TGI in [8], in assay [9] and in assay [10] were 2.33 µM, 5.85 µM and 5.94 µM, respectively.

The values above are taken from PubChem BioAssay (NCI).
